Experimental data as given in the supplement of paper PMC7840683.
± gives the standard deviation of the averaged measurements.

Tested on: HepaRG
Test: LDH release cytotoxicity, % of total lysis control; higher = more cytotoxic
Conditions: 48 h
Outline: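 Single-lot HepaRG cells on collagen I-coated 96-well plates were exposed for 48 h in duplicate, in serum-free induction medium with 0.5% DMSO, to eight-point half-log series (test chemicals top 100 µM). Total lysis wells received 0.1% Triton X, and LDH leakage into 50 µL spent medium was read as resorufin fluorescence (CytoTox-ONE, Tecan Safire). Percent cytotoxicity was normalized to on-plate vehicle and total lysis controls and averaged over the duplicates.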

For `c1ccc(N=Nc2ccccc2)cc1` [Azobenzene], which LDH release cytotoxicity (0.03162 µM) is on record?
Its LDH release cytotoxicity is -1.57 ± 0.37%.

What about the LDH release cytotoxicity (0.1 µM) of the same compound?
Its LDH release cytotoxicity is -1.67 ± 0.46%.

What about the LDH release cytotoxicity (0.3162278 µM) of the same compound?
Its LDH release cytotoxicity is -0.316 ± 1.5%.

What about the LDH release cytotoxicity (1 µM) of the same compound?
The LDH release cytotoxicity was -2 ± 0.14%.

And the LDH release cytotoxicity (3.16228 µM)?
The LDH release cytotoxicity was -1.63 ± 0.18%.

What about the LDH release cytotoxicity (10 µM) of the same compound?
Its LDH release cytotoxicity is 0.0427 ± 0.32%.

And the LDH release cytotoxicity (31.6228 µM)?
The LDH release cytotoxicity was 1.14 ± 0.012%.

And the LDH release cytotoxicity (100 µM)?
Its LDH release cytotoxicity is 3.66 ± 1.6%.

For `CCCOc1ccc(S(=O)(=O)N2CCN(CC)CC2)cc1-c1nc2c(CC)n(Cc3ccccn3)nc2c(=O)[nH]1`, which LDH release cytotoxicity (0.03162 µM) is on record?
Its LDH release cytotoxicity is -0.95 ± 0.39%.

And the LDH release cytotoxicity (0.1 µM)?
Its LDH release cytotoxicity is -1.66 ± 0.39%.

And the LDH release cytotoxicity (0.3162278 µM)?
The LDH release cytotoxicity was -1.8 ± 0.68%.

And the LDH release cytotoxicity (1 µM)?
The LDH release cytotoxicity was -1.82 ± 0.63%.

What about the LDH release cytotoxicity (3.16228 µM) of the same compound?
Its LDH release cytotoxicity is -1.41 ± 0.12%.

And the LDH release cytotoxicity (10 µM)?
Its LDH release cytotoxicity is -1.21 ± 0.066%.

And the LDH release cytotoxicity (31.6228 µM)?
Its LDH release cytotoxicity is -0.893 ± 0.14%.

What about the LDH release cytotoxicity (100 µM) of the same compound?
The LDH release cytotoxicity was 5.44 ± 2.7%.

Which LDH release cytotoxicity (0.03162 µM) does the source give for `Cc1nn(C)c(Oc2ccccc2)c1C=NOCc1ccc(C(=O)OC(C)(C)C)cc1` [Fenpyroximate (Z,E)] here?
Its LDH release cytotoxicity is -1.39 ± 1.1%.

What about the LDH release cytotoxicity (0.1 µM) of the same compound?
The LDH release cytotoxicity was -1.596 ± 0.013%.

And the LDH release cytotoxicity (0.3162278 µM)?
Its LDH release cytotoxicity is -2.4 ± 0.59%.

What about the LDH release cytotoxicity (1 µM) of the same compound?
Its LDH release cytotoxicity is -2.65 ± 0.51%.

And the LDH release cytotoxicity (3.16228 µM)?
Its LDH release cytotoxicity is 11 ± 1.3%.

What about the LDH release cytotoxicity (10 µM) of the same compound?
Its LDH release cytotoxicity is 17.19 ± 0.12%.

And the LDH release cytotoxicity (31.6228 µM)?
Its LDH release cytotoxicity is 20.7 ± 1.8%.

And the LDH release cytotoxicity (100 µM)?
Its LDH release cytotoxicity is 30.9 ± 2.2%.

Which results are given for `O=C(O)c1ccccc1-n1cc(C(=O)O)c(=O)c2cc(Nc3c(F)cc(F)cc3Cl)c(Cl)cc21` [AVE9423]?
LDH release cytotoxicity (0.03162 µM): -1.33 ± 0.48%; LDH release cytotoxicity (0.1 µM): -1.38 ± 0.094%; LDH release cytotoxicity (0.3162278 µM): -2.06 ± 0.7%; LDH release cytotoxicity (1 µM): -2.38 ± 0.63%; LDH release cytotoxicity (3.16228 µM): -2.31 ± 0.53%; LDH release cytotoxicity (10 µM): -2.38 ± 0.67%; LDH release cytotoxicity (31.6228 µM): -1.42 ± 1.4%; LDH release cytotoxicity (100 µM): -1.52 ± 0.52%

`CC[C@H](C)[C@H]1O[C@]2(C=C[C@@H]1C)C[C@@H]1C[C@@H](C/C=C(\C)[C@@H](O[C@H]3C[C@H](OC)[C@@H](O[C@H]4C[C@H](OC)[C@@H](O)[C@H](C)O4)[C@H](C)O3)[C@@H](C)/C=C/C=C3\CO[C@@H]4[C@H](O)C(C)=C[C@@H](C(=O)O1)[C@]34O)O2.CO[C@H]1C[C@H](O[C@H]2[C@H](C)O[C@@H](O[C@@H]3/C(C)=C/C[C@@H]4C[C@@H](C[C@]5(C=C[C@H](C)[C@@H](C(C)C)O5)O4)OC(=O)[C@@H]4C=C(C)[C@@H](O)[C@H]5OC/C(=C\C=C\[C@@H]3C)[C@]54O)C[C@@H]2OC)O[C@@H](C)[C@@H]1O` [Abamectin] was tested. Which LDH release cytotoxicity (0.0191318 µM) did it give?
Its LDH release cytotoxicity is -1.6 ± 0.53%.

And the LDH release cytotoxicity (0.0605 µM)?
The LDH release cytotoxicity was -0.607 ± 0.021%.

What about the LDH release cytotoxicity (0.191318 µM) of the same compound?
Its LDH release cytotoxicity is -1.03 ± 0.44%.

What about the LDH release cytotoxicity (0.605 µM) of the same compound?
The LDH release cytotoxicity was -0.868 ± 0.18%.

What about the LDH release cytotoxicity (1.913178 µM) of the same compound?
The LDH release cytotoxicity was -1.21 ± 0.25%.

And the LDH release cytotoxicity (6.05 µM)?
The LDH release cytotoxicity was -1.13 ± 0.81%.

And the LDH release cytotoxicity (19.1318 µM)?
The LDH release cytotoxicity was 12.3 ± 1.8%.

And the LDH release cytotoxicity (60.5 µM)?
The LDH release cytotoxicity was 63.56 ± 0.26%.

Which LDH release cytotoxicity (0.03162 µM) does the source give for `Cc1cccc(C)c1O` [2,6-Dimethylphenol] here?
Its LDH release cytotoxicity is -1.24 ± 1.2%.

What about the LDH release cytotoxicity (0.1 µM) of the same compound?
Its LDH release cytotoxicity is -0.897 ± 0.56%.

And the LDH release cytotoxicity (0.3162278 µM)?
The LDH release cytotoxicity was -1.931 ± 0.0097%.

What about the LDH release cytotoxicity (1 µM) of the same compound?
Its LDH release cytotoxicity is -1.91 ± 0.97%.

What about the LDH release cytotoxicity (3.16228 µM) of the same compound?
The LDH release cytotoxicity was -1.66 ± 0.091%.

What about the LDH release cytotoxicity (10 µM) of the same compound?
Its LDH release cytotoxicity is -1.73 ± 0.19%.

And the LDH release cytotoxicity (31.6228 µM)?
The LDH release cytotoxicity was -0.524 ± 1.1%.

What about the LDH release cytotoxicity (100 µM) of the same compound?
The LDH release cytotoxicity was 0.122 ± 0.94%.

Which LDH release cytotoxicity (0.02008 µM) does the source give for `CCC(C)N(C)C(=O)c1cc2ccccc2c(-c2ccccc2Cl)n1` (configuration not stated) here?
Its LDH release cytotoxicity is -1.37 ± 0.062%.

What about the LDH release cytotoxicity (0.0635 µM) of the same compound?
The LDH release cytotoxicity was -2.28 ± 1.3%.

And the LDH release cytotoxicity (0.200805 µM)?
The LDH release cytotoxicity was -3.22 ± 1%.

What about the LDH release cytotoxicity (0.635 µM) of the same compound?
The LDH release cytotoxicity was -3.04 ± 1.1%.

And the LDH release cytotoxicity (2.00805 µM)?
Its LDH release cytotoxicity is -2.99 ± 0.44%.

What about the LDH release cytotoxicity (6.35 µM) of the same compound?
The LDH release cytotoxicity was -2.9 ± 1.4%.

And the LDH release cytotoxicity (20.0805 µM)?
Its LDH release cytotoxicity is -1.43 ± 0.19%.

What about the LDH release cytotoxicity (63.5 µM) of the same compound?
The LDH release cytotoxicity was 7.06 ± 0.25%.

Which results are given for `O=C1NC(=O)C(c2ccccc2)(c2ccccc2)N1` [5,5-Diphenylhydantoin]?
LDH release cytotoxicity (0.01581 µM): -5.31 ± 1.9%; LDH release cytotoxicity (0.05 µM): -5.08 ± 1.3%; LDH release cytotoxicity (0.1581139 µM): -5.88 ± 1%; LDH release cytotoxicity (0.5 µM): -6.19 ± 1.8%; LDH release cytotoxicity (1.5811388 µM): -4.95 ± 1.6%; LDH release cytotoxicity (5 µM): 40.5 ± 6.5%; LDH release cytotoxicity (15.8114 µM): 50.1 ± 6.8%; LDH release cytotoxicity (50 µM): 44.7 ± 3.1%

Which results are given for `O=C(O)C1(C(=O)Nc2ccc(Cl)cc2Cl)CC1` [Cyclanilide]?
LDH release cytotoxicity (0.03162 µM): 0.835 ± 0.011%; LDH release cytotoxicity (0.1 µM): -0.444 ± 1.4%; LDH release cytotoxicity (0.3162278 µM): -0.309 ± 0.12%; LDH release cytotoxicity (1 µM): -1.03 ± 0.15%; LDH release cytotoxicity (3.16228 µM): -0.632 ± 1.9%; LDH release cytotoxicity (10 µM): 0.531 ± 0.17%; LDH release cytotoxicity (31.6228 µM): 2.66 ± 0.46%; LDH release cytotoxicity (100 µM): 4.54 ± 2%
